Source: US6787532B2, “Formulation containing anti-inflammatory androstane derivatives” (SmithKline Beecham Corporation, priority 2000, dated 2004)
Converted amounts (≈) assume the structure as drawn. “Also recorded” adds a separate entry of the source. Like-named read-outs stand apart in the source and are kept apart here.

Tests used:
[1] = molecular target: T1, glucocorticoid receptor (GR) (Homo sapiens, UniProt P04150); assay: Transactivation (GR): A549 cells with renilla luciferase reporter under glucocorticoid response elements; type: cell-based; settings: renilla luciferase GRE reporter, read-out: Transactivation (GR) ED50
Text: (§1) The glucocorticoid receptor (GR) can function in at least two distinct mechanisms, by upregulating gene expression through the direct binding of GR to specific sequences in gene promotors, and by downregulating gene expression that is being driven by other transcription factors (such as NFκB or AP-1) through their direct interaction with GR.
(§2) The first cell line contains the firefly luciferase reporter gene under the control of a synthetic promoter that specifically responds to activation of the transcription factor NFκB when stimulated with TNFα. The second cell line contains the renilla luciferase reporter gene under the control of a synthetic promotor that comprises 3 copies of the consensus glucocorticoid response element, and which responds to direct stimulation by glucocorticoids. Simultaneous measurement of transactivation and transrepression was conducted by mixing the two cell lines in a 1:1 ratio in 96 well plate (40,000 cells per well) and growing overnight at 37° C. Test compounds were dissolved in DMSO, and added to the cells at a final DMSO concentration of 0.7%. After incubation for 1 h 0.5 ng/ml TNFα (R&D Systems) was added and after a further 15 hours at 37° C., the levels of firefly and renilla luciferase were measured using the Packard Firelite kit following the manufacturers' directions. Dose response curves were constructed from which EC50 values were determined.

[2] = molecular target: T1, glucocorticoid receptor (GR); assay: Transrepression (NFκB): A549 cells with firefly luciferase NFκB reporter, TNFα stimulated; type: cell-based; settings: 0.5 ng/ml TNFα, read-out: Transrepression (NFκB) ED50
Text: as §1, §2

glucocorticoid receptor = molecular target: T2, glucocorticoid receptor (Homo sapiens, UniProt P04150); assay: In vitro functional glucocorticoid assays, metabolite versus parent; type: cell-based
T2 sequence (P04150 1-777): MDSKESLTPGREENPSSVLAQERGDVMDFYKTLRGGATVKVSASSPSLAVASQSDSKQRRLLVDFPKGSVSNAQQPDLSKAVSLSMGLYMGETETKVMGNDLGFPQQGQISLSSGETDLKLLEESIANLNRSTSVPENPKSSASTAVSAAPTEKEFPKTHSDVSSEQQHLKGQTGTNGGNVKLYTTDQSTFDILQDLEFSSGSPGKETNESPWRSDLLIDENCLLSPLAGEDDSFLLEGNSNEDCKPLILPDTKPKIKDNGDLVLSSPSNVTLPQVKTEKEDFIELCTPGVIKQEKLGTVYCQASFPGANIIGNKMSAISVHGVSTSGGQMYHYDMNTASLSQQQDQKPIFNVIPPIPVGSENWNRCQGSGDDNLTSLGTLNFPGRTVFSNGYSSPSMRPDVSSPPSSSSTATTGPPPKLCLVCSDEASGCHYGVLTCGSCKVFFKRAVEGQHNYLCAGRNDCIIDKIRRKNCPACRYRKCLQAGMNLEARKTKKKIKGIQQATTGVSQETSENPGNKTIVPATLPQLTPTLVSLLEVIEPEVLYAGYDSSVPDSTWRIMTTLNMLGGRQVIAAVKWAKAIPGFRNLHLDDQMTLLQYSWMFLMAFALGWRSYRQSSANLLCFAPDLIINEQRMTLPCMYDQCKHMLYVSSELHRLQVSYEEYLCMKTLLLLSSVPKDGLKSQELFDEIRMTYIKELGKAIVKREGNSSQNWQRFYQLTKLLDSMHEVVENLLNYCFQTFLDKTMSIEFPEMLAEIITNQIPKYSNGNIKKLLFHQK
Description: Compound (I) wherein R represents furan-2-yl undergoes highly efficient hepatic metabolism to yield the 17-β carboxylic acid (X) as the sole major metabolite in rat and human in vitro systems. […] Pharmacological activity was assessed in a functional in vitro assay of glucocorticoid agonist activity which is generally predictive of anti-inflammatory or anti-allergic activity in vivo.

[3] = Solubility in water with surfactants and co-solvating agents; type: physicochemical
Text: As noted above, this improved process permits solutions of higher concentration to be prepared than is possible by conventional techniques.

lung eosinophilia = assay: Ovalbumin sensitised Brown Norway rat eosinophilia model; type: in vivo; settings: single intra-tracheal dose of 30 μg, suspension in saline, 30 min prior to ovalbumin challenge
Description: Pharmacological activity in vivo was assessed in an-ovalbumin sensitised Brown Norway rat eosinophilia model. This model is designed to mimic allergen induced lung eosinophilia, a major component of lung inflammation in asthma.

thymus involution = assay: Rat model of thymus involution; type: in vivo; settings: 3 daily IT doses of 100 μg
[4] = Pharmacokinetics after intravenous and oral dosing in rats; type: in vivo; settings: male, Wistar Han, plasma, rat; for clearance: IV 0.1 mg/kg
[5] = Pharmacokinetics after intra-tracheal dry powder dosing in the pig; type: in vivo; settings: for time after dosing up to which quantifiable in plasma / Cmax / AUC(0-inf): pig; for time after dosing up to which quantifiable in plasma: intra-tracheal 1 mg, LLOQ 10 and 20 pg/mL; for Cmax / AUC(0-inf): plasma, 1 mg; for Cmax: inhaled or intranasal; for AUC(0-inf): iv, compound (I) calculated with IV half-life
Description: Serial blood samples were taken for up to 8 h following dosing.

[6] = Pharmacokinetics after intravenous administration in the anaesthetised pig; type: in vivo; settings: intravenous mixture of the two compounds at 0.1 mg/kg
Text: The clearance of these two glucocorticoids is similar is this experimental pig model.

[7] = 5% Tyloxapol, aqueous with cosolvent or surfactant or cyclodextrin, 5% Tyloxapol, process performed at 60-70° C., read-out: solubility
[8] = 5% Tyloxapol, aqueous with cosolvent or surfactant or cyclodextrin, 5% Tyloxapol, process performed at room temperature, read-out: solubility
[9] = water, aqueous with cosolvent or surfactant or cyclodextrin, in water, Triton X-100 2% w/w, read-out: Solubility
[10] = water, aqueous with cosolvent or surfactant or cyclodextrin, in water, Tyloxapol 2% w/w, read-out: Solubility
[11] = water, aqueous with cosolvent or surfactant or cyclodextrin, in water, Tyloxapol 5% w/w and PEG200 10% w/w, read-out: Solubility
[12] = water, aqueous with cosolvent or surfactant or cyclodextrin, in water, Tyloxapol 5% w/w, read-out: Solubility
[13] = water, in water, no surfactant, read-out: Solubility
[14] = Pig 1, intra-tracheal dry powder 1 mg
[15] = Pig 2, intra-tracheal dry powder 1 mg

| SMILES | solubility [3, 7] | solubility [3, 8] | solubility [3, 9] | solubility [3, 10] | solubility [3, 11] | solubility [3, 12] | solubility [3, 13] | reduction of thymus weight (thymus involution) | clearance [4] | time after dosing up to which quantifiable in plasma [5] | Cmax [5, 14] | Cmax [5, 15] | AUC(0-inf) [5, 14] | AUC(0-inf) [5, 15] | pharmacokinetic parameters, compound (I) versus fluticasone propionate [6] | also measured |
| --- | --- | --- | --- | --- | --- | --- | --- | --- | --- | --- | --- | --- | --- | --- | --- | --- |
| C[C@@H]1CC2C3C[C@H](F)C4=CC(=O)C=C[C@]4(C)[C@@]3(F)[C@@H](O)C[C@]2(C)[C@@]1(OC(=O)c1ccco1)C(=O)O (stereo partly shown) [Metabolite (X)] |  |  |  |  |  |  |  |  |  |  |  |  |  |  |  | EC50 [1]: < 250 nM; EC50 [2]: > 1000 nM; fold less active than the parent compound (glucocorticoid receptor): > 1000 fold |
| C[C@@H]1C[C@H]2[C@@H]3C[C@H](F)C4=CC(=O)C=C[C@]4(C)[C@@]3(F)[C@@H](O)C[C@]2(C)[C@@]1(OC(=O)c1ccco1)C(=O)SCF [Compound of Formula (I), 6α, 9α-difluoro-17α-[(2-furanylcarbonyl)oxy]-11β-hydroxy-16α-methyl-3-oxo-androsta-1,4-diene-17β-carbothioic acid S-fluoromethyl ester] | 344 µg/mL | 233 µg/mL | 266 µg/mL | 95 µg/mL | 836 µg/mL | 307 µg/mL | < 1 µg/mL | 67% | 47.3 mL/min/kg | up to 2 hours | 0.117 ng/mL | 0.081 ng/mL | 0.254 ng·h/mL | 0.221 ng·h/mL | the same | solubility ([3]; water, aqueous with cosolvent or surfactant or cyclodextrin, in water, Triton X-100 0.5% w/w, read-out: Solubility): 18 µg/mL; solubility ([3]; water, aqueous with cosolvent or surfactant or cyclodextrin, in water, Triton X-100 5% w/w and PEG200 10% w/w, read-out: Solubility): 840 µg/mL; solubility ([3]; water, aqueous with cosolvent or surfactant or cyclodextrin, in water, Triton X-100 5% w/w, read-out: Solubility): 549 µg/mL; solubility ([3]; water, aqueous with cosolvent or surfactant or cyclodextrin, in water, Triton X-305 5% w/w, read-out: Solubility): 204 µg/mL; solubility ([3]; water, aqueous with cosolvent or surfactant or cyclodextrin, in water, Tyloxapol 5% w/w and Dextrose 4% w/w, read-out: Solubility): 526 µg/mL; solubility ([3]; water, aqueous with cosolvent or surfactant or cyclodextrin, in water, Tyloxapol 5% w/w and Propylene glycol 10% w/w, read-out: Solubility): 422 µg/mL; solubility ([3]; water, aqueous with cosolvent or surfactant or cyclodextrin, in water, Tyloxapol 5% w/w, no co-solvating agent, read-out: Solubility): 344 µg/mL; solubility ([3]; water, aqueous with cosolvent or surfactant or cyclodextrin, in water, Tyloxapol 6% w/w, read-out: Solubility): 346 µg/mL; solubility ([3]; water, aqueous with cosolvent or surfactant or cyclodextrin, in water, Tyloxapol 7.5% w/w, read-out: Solubility): 576 µg/mL; solubility ([3]; water, aqueous with cosolvent or surfactant or cyclodextrin, in water, Tyloxapol 10% w/w, read-out: Solubility): 585 µg/mL; inhibition of lung eosinophilia (lung eosinophilia): 69%; bioavailability ([4]; oral, 0.1 mg/kg, oral 0.1 mg/kg and IV 0.1 mg/kg): 0.9%; systemic exposure compared to fluticasone propionate ([5]; anaesthetised pigs, dry powder delivery to the lungs): markedly reduced systemic exposure; also recorded: significantly lower exposure |
| CCC(=O)O[C@]1(C(=O)SCF)[C@H](C)C[C@H]2[C@@H]3C[C@H](F)C4=CC(=O)C=C[C@]4(C)[C@@]3(F)[C@@H](O)C[C@@]21C [Fluticasone propionate, 6α, 9α-Difluoro-17α-(1-oxopropoxy)-11β-hydroxy-16α-methyl-3-oxo-androsta-1,4-diene-17-0-carbothioic acid S-fluoromethyl ester, reference compound] | 133 µg/mL (≈ 266 µM) | 87 µg/mL (≈ 174 µM) | 69 µg/mL (≈ 138 µM) | 41 µg/mL (≈ 81.9 µM) | 207 µg/mL (≈ 414 µM) | 133 µg/mL (≈ 266 µM) | < 1 µg/mL | 78% | 45.2 mL/min/kg | up to 8 hours | 0.277 ng/mL | 0.218 ng/mL | 0.455 ng·h/mL | 0.495 ng·h/mL | the same | solubility ([3]; in water, Labrasol 10% w/w): None detected; solubility ([3]; in water, Triton X-45 5% w/w): None detected; solubility ([3]; water, aqueous with cosolvent or surfactant or cyclodextrin, in water, Sodium chenodesoxycholate 5% w/w, read-out: Solubility): 5.9 µg/mL (≈ 11.8 µM); solubility ([3]; water, aqueous with cosolvent or surfactant or cyclodextrin, in water, Sodium cholate 2% w/w, read-out: Solubility): 11 µg/mL (≈ 22 µM); solubility ([3]; water, aqueous with cosolvent or surfactant or cyclodextrin, in water, Sodium cholate 20% w/w, read-out: Solubility): 140 µg/mL (≈ 280 µM); solubility ([3]; water, aqueous with cosolvent or surfactant or cyclodextrin, in water, Tyloxapol 5% w/w and Phospatidyl choline 1% w/w, read-out: Solubility): 197 µg/mL (≈ 394 µM) |
